Measured values from PubChem BioAssay AID248 (DTP/NCI, 2004).
Toxic doses and inconclusive results are not listed. Cut-off read from the data, not from the text of the source: active = T/C of 150% or more; inactive = T/C below 125%.

Tested on: L1210 leukemia ip in BDF1 mice, survival T/C
Test: NCI In Vivo Anticancer Drug Screen. Data for tumor model L1210 Leukemia (intraperitoneal) in B6D2F1 (BDF1) mice
Conditions: endpoint: mean survival time, higher = longer survival
Outline: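 Ratio derived from survival: compound-dosed mice over vehicle-dosed mice, all bearing a transplantable tumor.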

[1] = dose: 100.0 mg/kg/injection, schedule: Q04DX003 (ip), vehicle: saline
[2] = dose: 50.0 mg/kg/injection, schedule: Q01DX009 (ip), vehicle: saline
[3] = dose: 100.0 mg/kg/injection, schedule: Q01DX009 (ip), vehicle: saline
[4] = dose: 200.0 mg/kg/injection, schedule: Q01DX009 (ip), vehicle: saline
[5] = dose: 100.0 mg/kg/injection, schedule: Q04DX003 (ip), vehicle: Klucel (hydroxypropylcellulose) (HPC)
[6] = dose: 100.0 mg/kg/injection, schedule: Q01DX009 (ip), vehicle: saline with Tween-80
[7] = dose: 200.0 mg/kg/injection, schedule: Q01DX009 (ip), vehicle: saline with Tween-80
[8] = dose: 100.0 mg/kg/injection, schedule: Q04DX003 (ip), vehicle: saline with Tween-80

Measured: T/C

O=S(=O)(OCC1CO1)c1ccc(Cl)c(Cl)c1 (centres undefined)
inactive: dose: 100.0 mg/kg/injection, schedule: Q01DX008 (ip), vehicle: Klucel (hydroxypropylcellulose) (HPC) 96 % of control | dose: 200.0 mg/kg/injection, schedule: Q01DX008 (ip), vehicle: Klucel (hydroxypropylcellulose) (HPC) 102 % of control | dose: 400.0 mg/kg/injection, schedule: Q01DX008 (ip), vehicle: Klucel (hydroxypropylcellulose) (HPC) 106 % of control

N#Cc1ccccc1CCl
inactive: dose: 50.0 mg/kg/injection, schedule: Q01DX001 (ip), vehicle: carboxymethylcellulose (CMC) 103 % of control | dose: 100.0 mg/kg/injection, schedule: Q01DX001 (ip), vehicle: carboxymethylcellulose (CMC) 97 % of control | dose: 200.0 mg/kg/injection, schedule: Q01DX001 (ip), vehicle: carboxymethylcellulose (CMC) 103 % of control | dose: 400.0 mg/kg/injection, schedule: Q01DX001 (ip), vehicle: carboxymethylcellulose (CMC) 107 % of control

CCCCCC/C=C1/CCC/C1=N\NC(=O)c1ccc[n+](C)c1
inactive: dose: 25.0 mg/kg/injection, schedule: Q04DX003 (ip), vehicle: saline 100 % of control | dose: 50.0 mg/kg/injection, schedule: Q04DX003 (ip), vehicle: saline 101 % of control | [1] 100 % of control

CC12C=CC(O1)C1C(=O)OC(=O)C12 (centres undefined)
inactive: [2] 91 % of control | dose: 75.0 mg/kg/injection, schedule: Q01DX001 (ip), vehicle: other 96 % of control | [3] 100 % of control | dose: 150.0 mg/kg/injection, schedule: Q01DX001 (ip), vehicle: other 98 % of control | [4] 88 % of control

O=C(O)c1cc(-c2ccc3cc4c(cc3c2)OCO4)nc2ccccc12
inactive: dose: 75.0 mg/kg/injection, schedule: Q01DX001 (ip), vehicle: saline 97 % of control | dose: 150.0 mg/kg/injection, schedule: Q01DX001 (ip), vehicle: saline 101 % of control | dose: 300.0 mg/kg/injection, schedule: Q01DX001 (ip), vehicle: saline 93 % of control

CN(c1ccccc1)S(=O)(=O)c1cccc([N+](=O)[O-])c1
inactive: [5] 103 % of control | dose: 200.0 mg/kg/injection, schedule: Q04DX003 (ip), vehicle: Klucel (hydroxypropylcellulose) (HPC) 94 % of control | dose: 400.0 mg/kg/injection, schedule: Q04DX003 (ip), vehicle: Klucel (hydroxypropylcellulose) (HPC) 101 % of control

CCCCN(C(C)(C)C(SSSC(c1ccc(Cl)cc1)C(C)(C)N(CCCC)S(C)(=O)=O)c1ccc(Cl)cc1)S(C)(=O)=O (centres undefined)
inactive: [6] 96 % of control | [7] 86 % of control

C=CCNC(=O)NCCSC(=O)SCCCC
inactive: dose: 100.0 mg/kg/injection, schedule: Q01DX001 (ip), vehicle: Klucel (hydroxypropylcellulose) (HPC) 103 % of control | dose: 200.0 mg/kg/injection, schedule: Q01DX001 (ip), vehicle: Klucel (hydroxypropylcellulose) (HPC) 100 % of control | dose: 400.0 mg/kg/injection, schedule: Q01DX001 (ip), vehicle: Klucel (hydroxypropylcellulose) (HPC) 100 % of control

O=c1ccc2c([nH]1)CCC2
inactive: dose: 25.0 mg/kg/injection, schedule: Q01DX009 (ip), vehicle: saline 111 % of control | dose: 25.0 mg/kg/injection, schedule: Q04DX003 (ip), vehicle: saline with Tween-80 94 % of control | [2] 121 % of control | dose: 50.0 mg/kg/injection, schedule: Q04DX003 (ip), vehicle: saline with Tween-80 98 % of control | [3] 101 % of control | [5] 100 % of control | [8] 94 % of control

CNc1ncnc(N(C)C)c1[N+](=O)[O-]
inactive: dose: 50.0 mg/kg/injection, schedule: Q01DX009 (ip), vehicle: Klucel (hydroxypropylcellulose) (HPC) 102 % of control | dose: 100.0 mg/kg/injection, schedule: Q01DX009 (ip), vehicle: Klucel (hydroxypropylcellulose) (HPC) 98 % of control | dose: 200.0 mg/kg/injection, schedule: Q01DX009 (ip), vehicle: Klucel (hydroxypropylcellulose) (HPC) 109 % of control

O=C(c1ccccc1)C1(c2ccccc2)SSC1(C(=O)c1ccccc1)c1ccccc1 (centres undefined)
inactive: [1] 95 % of control | dose: 200.0 mg/kg/injection, schedule: Q04DX003 (ip), vehicle: saline 92 % of control | dose: 400.0 mg/kg/injection, schedule: Q04DX003 (ip), vehicle: saline 97 % of control

Clc1ccc(N=Cc2ccc3c(c2)OCO3)cc1
inactive: dose: 100.0 mg/kg/injection, schedule: Q01DX009 (ip), vehicle: other 93 % of control | dose: 200.0 mg/kg/injection, schedule: Q01DX009 (ip), vehicle: other 98 % of control | dose: 400.0 mg/kg/injection, schedule: Q01DX009 (ip), vehicle: other 90 % of control

O=Cc1cc2ccccc2cc1O
inactive: dose: 50.0 mg/kg/injection, schedule: Q01DX009 (ip), vehicle: saline with Tween-80 91 % of control | [6] 94 % of control | [7] 97 % of control

O=C(Cl)C1C(c2ccccc2)C1c1ccccc1 (centres undefined)
inactive: [8] 106 % of control

CCCNC(C)=O
inactive: [3] 102 % of control | [4] 101 % of control | dose: 400.0 mg/kg/injection, schedule: Q01DX009 (ip), vehicle: saline 91 % of control
